Laboratory results reported in patent US5759768A, “Assays for factors affecting circularization of DNA, assays for factors affecting DNA integration, factors, and uses thereof” (priority 1995, dated 1998).
Where two headings read alike, the source gives them in different places.

Experiments:
Assay type in all cases: biochemical, HIV-1
[1] = test system: linear viral DNA (circularization)
Protocol: (§1) The chronically HIV-1 infected Molt IIIB human T cell line (HTLV IIIB virus strain) was the source of virus for cell-free infections. This human T cell line constitutively produces a low level of the HTLV-111B strain of HIV-1. Culture supernatant containing a high concentration of virus was prepared by incubating 300×10^6 Molt IIIB cells in 50 ml fresh RPMI 1640 medium containing 20% fetal calf serum and 10 ng of phorbol 12-myristate 13-acetate per ml for 20-24 hours. […] Cytoplasmic extracts (3 ml) were prepared 4-4.5 hours post-infection, by a modification of the procedure of Brown et al., Cell 49: 342-356 (1987).
(§2) At specified times after infection, cells were washed twice with buffer K (20 mM Hepes, pH 7.4, 150 mM KCl, 5 mM MgCl2, 1 mM dithiothreitol, […]) and then lysed at a concentration of 33×10^6 cells per ml in the same buffer containing 0.025% digitonin or 0.025% Triton X-100. Cells were extracted for 10 minutes at room temperature, and the lysate was centrifuged at 1000×g for 3 minutes, and is referred to as "cytoplasmic extract". Cytoplasmic extract was the source of viral DNA for analyses in the assays described below. The pellet from the initial low-speed centrifugation contained cell debris and intact nuclei and is called the "nuclear pellet". Cell extracts from uninfected SupT1 cells were prepared in the same manner.
Viral DNA present in cytoplasmic extracts was deproteinated by incubation with proteinase K (1 mg/ml)/10 mM EDTA/0.5% SDS for 1 hour at 55° C. Samples were extracted successively with phenol/chloroform [1:1 (vol/vol)] and chloroform. DNA was ethanol-precipitated, washed with 70% ethanol, resuspended in 10 mM Tris.HCI (pH 7.4), and treated with RNase A (20 μpg/ml)for 1 hour at […]. before analysis by agarose gel electrophoresis and Southern blotting.
(§3) DNA samples were layered on 0.8% agarose gels and electrophoresed at 1 V/cm for 15 hour in Tris/acetate/EDTA buffer. After electrophoresis, DNA was blotted by capillary action onto nitrocellulose (0.45 μm, Schleicher & Schuell).
Cell extracts were prepared from cells four to five hours after infection with HIV-1, using the above-described methods to yield fully functional viral preintegration complexes. […] In all cases, a HIV-1 LTR-containing DNA fragment was used as a hybridization probe. Therefore, only LTR-containing DNA fragments are detected. […] Lane 5: Unintegrated viral DNA prepared by Hirt extraction of SupT1 cells infected 24 hours earlier with concentrated HIV-1. […] Viral DNA was purified from extracts incubated with 1 mM ATP for 15 minutes (lanes 1 and 4), with 1 mM ATP for 45 minutes (lanes 3 and 6), or with 1 mM ATPγS for 45 minutes (lanes 2 and 5). Lanes 1-3: uncut viral DNA; lanes 4-6: viral DNA was cut with SalI prior to electrophorosis. Lane 7: linear viral DNA, prepared from untreated extracts was digested with SalI prior to electrophorosis. Lane 8: unintegrated viral DNA prepared by Hirt extraction of infected cells, as described with respect to FIG. 14, digested with SalI prior to electrophoresis. […] Lanes 1-3. Viral DNA prepared from extracts treated with 1 mM ATP for 15 minutes, 30 minutes and 45 minutes, respectively. Lane 4: Viral DNA prepared from extract treated with 1 mM ATPγS for 45 minutes. Lanes 5-7: products of reactions shown in lanes 1-3, respectively, digested with SalI and PstI prior to electrophoresis. Lane 8: SalI, PstI digestion of viral DNA prepared from extract treated with 1 mM ATP for 90 minutes. Lane 9: SalI, PstI digestion of reaction products shown in lane 4. Lane 10: SalI, PstI digestion of unintegrated viral DNA prepared by Hirt extraction of infected cells.

[2] = test system: purified linear viral DNA; test: Circularization of purified linear viral DNA in cytoplasmic extracts of uninfected SupT1 cells; conditions: 1 mM, 37° C., 45 min
Protocol: Further evidence of a role for host proteins in the formation of the 1-LTR and simple 2-LTR circular forms of viral DNA was obtained by testing the ability of uninfected cell extracts to mediate the circularization of purfied viral DNA. Linear viral DNA was prepared from cytoplasmic extracts of uninfected cells by SDS-proteinase K treatment and phenol extraction. The purfied DNA was added to cytoplasmic extracts prepared form uninfected SupT1 cells, in the presence or absence of added ATP.
Linear viral DNA was purified from cytoplasmic extracts of cells 4 hours post-infection as described above. In FIG. 22, a purified linear viral DNA was added to cytoplasmic extracts from uninfected SupT1 cells and incubated at 37° C. for 45 minutes. The uninfected SupT1 cells used for the preparation of extracts were either untreated (lanes 3-11) or cultured in the presence of 10 ng/ml phorbol 12-myristate 13-acetate for six hours prior to extraction (lane 2). […] Lanes 2-11: reaction products following incubation of purified linear viral DNA in uninfected extracts containing 1 mM ATP (lanes 2 and 3), nothing added (lane 4), 1 mM dATP (lane 5), 1 mM UTP (lane 6), 1 mM CTP (lane 7), 1 mM GTP (lane 8), 1 mM ATPγS (lane 9), or 1 mM ADP (lane 10). Lane 11: uninfected SupT1 cell extract was treated with proteinase K for 10 minutes at 37° C., then linear viral DNA was added and incubation continued for 45 minutes. In FIG. 23, lanes 1, 2, 4 and 5: purified linear viral DNA was incubated with T4 DNA ligase (lane 1), T4 polynucleotide kinase and T4 DNA ligase (lane 2), Klenow fragment of E. coli DNA polymerase I and T4 DNA ligase […], or Klenow fragment, T4 polynucleotide kinase, and T4 DNA ligase (lane 4). Lanes 3 and 6: in vitro circularization reaction products generated in cell extracts, included as size standards. Lane 3: cytoplasmic extracts from infected cells were incubated with […] for 45 minutes; lane 6: purified linear viral DNA was incubated with cytoplasmic extract from uninfected SupT1 cells in the presence of 1 mM ATP for 45 minutes. The possibility that a host DNA ligase was responsible for the formation of the simple 2-LTR circles was examined by testing the ability of phage T4 ligase to catalyze the circularization of linear viral DNA. […] Restriction endonuclease analysis of the reaction products formed in the presence of both Klenow fragment and T4 DNA ligase confirmed the formation of new 2-LTR junctions (not shown). […] This observation is consistent with previous reports that linear viral DNA prepared from cells infected with the murine leukemia virus [Fujiwara and Mizuuchi, Cell, 54:497-504 (1988) and HIV-1 [Pauza, Virology, 179:886-887 (1990)] consists of a mixture of molecules that are either blunt-ended or recessed by two nucleotides at each 3'-terminus. The removal of the two terminal nucleotides is mediated by the viral integrase as a necessary step in the process of integration [Roth et al., Cell 58: 47-54 (1989)]. […] This would explain the requirement of DNA polymerase for the subsequent joining of the ends of viral DNA by DNA ligase.

[3] = test system: viral DNA integrated into .phi.X174 target DNA; conditions: for inhibition of integration: 90 min incubation
Protocol: as §1, §2, §3
In Vitro Integration Reaction
Pst I-linearized (replicative form III) .phi.X174 DNA, relaxed circular (replicative form II) .phi.X174 DNA, and single-stranded M13 DNA were used as targets for the in vitro integration of viral DNA. Target DNA was added to cytoplasmic extracts of intected SupT1 cells to a concentration of 10 μg/ml, and reaction mixtures were incubated at […]. Reactions, were stopped by the addition of SDS and proteinase K.
Cytoplasmic extracts prepared from SupT1 cells 4 hours after infection with HIV-1 were incubated with exogenously added target DNA under integration reaction conditions. Products of the reactions were analyzed by Southern blot hybridization. The time course of integration into linear .phi.X174 DNA target was determined. Target DNA was added to the extract and the reaction was stopped after 0,5,15,30, or 45 minutes of incubation at 37° C. (FIG. 11, lanes a-e, respectively). Purified linear viral DNA was incubated for 1 hour at 37° C. with cytoplasmic extract prepared from uninfected SupT1 cells (lane f). […] Arrows in the Figure indicate the positions of viral DNA products. L, linear viral DNA:I, integration product. Integration was detected by the shift of linear viral DNA on Southern blots from the characteristic 9.7-kilobase (kb) position to a position corresponding to viral DNA plus target DNA.

Nc1ncnc2c1ncn2[C@@H]1O[C@H](COP(=O)(O)OP(=O)(O)O)[C@@H](O)[C@H]1O [ADP]
circular DNA forms observed ([1]; 1 mM, 37° C., 45 min): No circular DNA forms were observed

Nc1ncnc2c1ncn2[C@@H]1O[C@H](COP(=O)(O)O)[C@@H](O)[C@H]1O [AMP]
circular DNA forms observed ([1]; 1 mM, 37° C., 45 min): No circular DNA forms were observed

Nc1ccn([C@@H]2O[C@H](COP(=O)(O)OP(=O)(O)OP(=O)(O)O)[C@@H](O)[C@H]2O)c(=O)n1 [CTP, cytosine triphosphate]
induction of 1-LTR circular form [1]: induced the formation of only a small amount of the 1-LTR circular form | induction of 2-LTR circles [1]: induced the formation of 2-LTR circles | 1-LTR circles from purified linear viral DNA [2]: able to induce the formation of 1-LTR circles | 2-LTR circles from purified linear viral DNA [2]: failed to induce the formation of detectable 2-LTR circles

Nc1nc2c(ncn2[C@@H]2O[C@H](COP(=O)(O)OP(=O)(O)O)[C@@H](O)[C@H]2O)c(=O)[nH]1 [GDP]
circular DNA forms observed ([1]; 1 mM, 37° C., 45 min): No circular DNA forms were observed

Nc1nc2c(ncn2[C@@H]2O[C@H](COP(=O)(O)OP(=O)(O)OP(=O)(O)O)[C@@H](O)[C@H]2O)c(=O)[nH]1 [GTP, guanosine triphosphate]
induction of 1-LTR circular form ([1]; 1 mM, 37° C., 45 min): induced the formation of only a small amount of the 1-LTR circular form | induction of 2-LTR circles ([1]; 1 mM, 37° C., 45 min): induced the formation of 2-LTR circles

[Cl-].[Na+] [NcCl]
Relative activity, % of standard [3]: 100 % of standard

O=c1ccn([C@@H]2O[C@H](COP(=O)(O)OP(=O)(O)OP(=O)(O)O)[C@@H](O)[C@H]2O)c(=O)[nH]1 [UTP]
induction of 1-LTR circular form ([1]; 1 mM, 37° C., 45 min): induced the formation of only a small amount of the 1-LTR circular form | induction of 2-LTR circles ([1]; 1 mM, 37° C., 45 min): induced the formation of 2-LTR circles | 1-LTR circles from purified linear viral DNA [2]: able to induce the formation of 1-LTR circles | 2-LTR circles from purified linear viral DNA [2]: failed to induce the formation of detectable 2-LTR circles

Nc1ncnc2nc[nH]c12 [adenine]
circular DNA forms observed ([1]; 1 mM, 37° C., 45 min): No circular DNA forms were observed

Nc1ncnc2c1ncn2[C@@H]1O[C@H](CO)[C@@H](O)[C@H]1O [adenosine]
circular DNA forms observed ([1]; 1 mM, 37° C., 45 min): No circular DNA forms were observed

CC[C@@]1(O)C(=O)OCc2c1cc1n(c2=O)Cc2cc3ccccc3nc2-1 [camptothecin]
inhibition of integration ([3]; 5 μM): about 50% | inhibition of integration ([3]; 50 μM): about 100%

Nc1ncnc2c1ncn2[C@@H]1O[C@H](CO)C[C@H]1O [cordycepin, 3'-deoxyadenosine]
circular DNA forms observed ([1]; 1 mM, 37° C., 45 min): No circular DNA forms were observed

Nc1cc[nH]c(=O)n1 [cytosine]
circular DNA forms observed ([1]; 1 mM, 37° C., 45 min): No circular DNA forms were observed

Nc1ncnc2c1ncn2[C@H]1C[C@H](O)[C@@H](COP(=O)(O)OP(=O)(O)OP(=O)(O)O)O1 [dATP, deoxyadenosine triphosphate]
induction of both circular forms ([1]; 1 mM, 37° C., 45 min): induced both circular forms with an efficiency comparable to ATP | 1-LTR circles from purified linear viral DNA [2]: able to induce the formation of 1-LTR circles | 2-LTR circles from purified linear viral DNA [2]: failed to induce the formation of detectable 2-LTR circles

Nc1nc2c(ncn2[C@H]2CC[C@@H](COP(=O)(O)OP(=O)(O)OP(=O)(O)O)O2)c(=O)[nH]1 [dd-GTP]
induction of 1-LTR circular form ([1]; 1 mM, 37° C., 45 min): unable to induce detectable amounts of the 1-LTR circular forms | induction of 2-LTR circles ([1]; 1 mM, 37° C., 45 min): induced the formation of 2-LTR circles

Nc1ncnc2c1ncn2[C@H]1CC[C@@H](COP(=O)(O)OP(=O)(O)OP(=O)(O)O)O1 [ddATP, dideoxyadenesine triphosphate]
induction of 1-LTR circular form ([1]; 1 mM, 37° C., 45 min): unable to induce detectable amounts of the 1-LTR circular forms | induction of 2-LTR circles ([1]; 1 mM, 37° C., 45 min): induced the formation of 2-LTR circles

Nc1ccn([C@H]2CC[C@@H](COP(=O)(O)OP(=O)(O)OP(=O)(O)O)O2)c(=O)n1 [ddCTP]
induction of 1-LTR circular form ([1]; 1 mM, 37° C., 45 min): unable to induce detectable amounts of the 1-LTR circular forms | induction of 2-LTR circles ([1]; 1 mM, 37° C., 45 min): induced the formation of 2-LTR circles

Cc1cn([C@H]2CC[C@@H](COP(=O)(O)OP(=O)(O)OP(=O)(O)O)O2)c(=O)[nH]c1=O [ddTTP]
induction of 1-LTR circular form ([1]; 1 mM, 37° C., 45 min): unable to induce detectable amounts of the 1-LTR circular forms | induction of 2-LTR circles ([1]; 1 mM, 37° C., 45 min): induced the formation of 2-LTR circles

Nc1nc2nc[nH]c2c(=O)[nH]1 [guanine]
circular DNA forms observed ([1]; 1 mM, 37° C., 45 min): No circular DNA forms were observed

Nc1nc2c(ncn2[C@@H]2O[C@H](CO)[C@@H](O)[C@H]2O)c(=O)[nH]1 [guanosine]
circular DNA forms observed ([1]; 1 mM, 37° C., 45 min): No circular DNA forms were observed

O=c1cc[nH]c(=O)[nH]1 [uracil]
circular DNA forms observed ([1]; 1 mM, 37° C., 45 min): No circular DNA forms were observed

alkaline phosphatase
effect on the in vitro integration reaction ([3]; pretreatment of linear target DNA): no effect on the in vitro integration reaction
